What was measured:
TNF-α production = conditions: previously shown; cited from earlier work
[1] = tested on: AUUUA RNA / RNA binding protein (K562 extract); assay: Exploratory library screen, filter binding, 32P-labeled AUUUA RNA and K562 extract; conditions: 10 μM
Excerpt: FIG. 4 is a graph of the amount of radioactively labeled RNA retained on a filter (expressed in percent of the amount of RNA retained on a filter in a reference binding solution) following loading of various binding solutions. All of the binding solutions contained radioactively labeled AUUUA RNA either alone or including various other components. The first column represents a binding solution without RNA binding protein. The remaining columns represent binding solution containing RNA binding protein (K562 extract). Columns 3 through 8 correspond to binding solutions including the indicated test compound.
(§1) a. Filter binding. Filter binding involves trapping interacting molecules on a filter while non interacting molecules pass through the filter. This procedure is known to those of skill in the art. For example, prewet nitrocellulose filters are equilibrated in 1× binding buffer. The binding reaction is then applied to the filter by vacuum filtration to remove unbound RNA. The filter is washed in 1× binding buffer, scintillation cocktail is added and the amount of protein-bound RNA is determined by scintillation counting.
(§2) All binding reactions were performed in 96-well v-bottom plates in a final volume of 10 μl. The assays were constituted and performed as described below. Specifically, assays were performed by (1) forming a binding solution including RNA molecules, 7.5 mM BTP at pH 8.5, 10 mM KCl, 5 mM MgCl2, 0.2 mM DTT, and 10% glycerol, (2) heating the binding solution to denature the RNA molecules, (3) cooling the binding solution, (4) adding RNA binding proteins to the binding solution, (5) loading the binding solution onto a filter, and (6) detecting the amount RNA retain on the filter. It is preferred that the samples be loaded on to a filter of either pure nitrocellulose or a mixed cellulose ester (MCA). It is also preferred that the filters have a 0.2μ pore size, although filters with a 0.45μ pore size will also bind the RNA/RNA binding protein complex. It is preferred that, prior to loading the binding solution onto a filter, the volume is increased. For this purpose, it is preferred that the dilution solution has the same buffer components as the binding solution except lacking the density agent. For a 10 μl volume it is preferred that the final volume be about 100 μl. It is also preferred that the binding solution be loaded onto the filter under vacuum. It is also preferred that the filter is washed twice prior to detecting the amount of RNA retained on the filter. Preferably the wash solution had the same composition as the dilution solution. However, TE (pH 8.0), PBS, or TCA can also be used as wash solutions. In most of the assays described below, the RNA molecules were labeled with ^32 P.
The library was initially screened at 10 μM against ^32 P-labeled AUUUA RNA. Several methods of introducing the compounds into the binding reaction were tested. Initially the compounds were co-incubated with the RNA and protein, producing modest results. Next, preincubation with either the protein extract or the RNA was tried with improved results.
Seventeen compounds were chosen for further analysis at 100 nM, 1 μM and 10 μM using both AUUUA and IRE RNAs based on the results from three screening efforts (Exps. 29-31). Table 2 summarizes the results from these compounds at 10 μM. The results are also shown graphically in FIG. 4. […] Compounds D9 and H2, chosen as negative controls from the initial screening, continued to have no effect in the dose dependent screen (Exp. 33) and were identified as vehicle controls.
A 96 member random compound library was screened with the disclosed high throughput assay. The compounds were initially screened at 10 μM against ^32 P-labeled AUUUA RNA. […] Seventeen compounds were chosen for further analysis at 100 nM, 1 μM and 10 μM using both AUUUA and IRE RNA molecules to determine if any selectivity of the compounds could be detected. […]

[2] = tested on: IRE RNA / RNA binding protein (K562 extract); assay: High throughput filter binding assay, labeled IRE RNA and K562 protein extract; conditions: hemin 1 to 100 μM; FeCl3 and desferroxiamine 1 μM to 1 mM
Experimental: as §1
as §2, with “It is also preferred that the binding solution be loaded onto the filter under vacuum. It is also preferred that the filter is washed twice prior to detecting the amount of RNA retained on the filter. Preferably the wash solution had the same composition as the dilution solution. However, TE (pH 8.0), PBS, or TCA can also be used as wash solutions. In most of the assays described below, the RNA molecules were labeled with ^32 P.” left out
Binding assays were performed with wild-type IRE RNA and K562 protein extract in the presence of sources of iron or iron chelators to determine the ability of the filter assay to detect the modulation of binding interactions by small molecules. […] The reactions were analyzed by gel shifts to visualize the results of the filter assay. […]

[3] = tested on: human C4b-binding protein 5' UTR / RNA binding proteins (K562 cell line protein); assay: Gel shift specificity (competition), labeled C4b-binding protein 5' UTR and K562 protein; conditions: 100 and 1,000 fold molar excess of unlabeled RNA
Excerpt: (§3) A primer pair was designed from the 5' end of the UTR and a 3' primer encompassing nucleotide +1 with the use of the OLIGO program. Similar primers encompassing the same criteria can be designed either manually without the use of this program, or using another similar oligonucleotide design program. In addition, the 5' primer contained 24 nucleotides at the 5' end encoding for the T7 promoter. Clones containing the above sequences were generated by rtPCR from total RNA obtained from the K562 lymphoblastoma cell line. The clones were restriction mapped and analyzed by gel electrophoresis to confirm their identity.
(§4) PCR products generating a single band (in the undigested lanes) were then used for in vitro transcription of labeled RNA using Ambion's Maxiscript Kit. The labeled transcripts were used in the RNA binding protein detection assay described above. The binding solutions containing the labeled RNA were incubated with 2 μg of protein isolated from the same cell from which the rtPCR product was generated, and the products were resolved on a non-denaturing gel. […] In this experiment, a 100 and 1,000 fold molar excess of unlabeled identical RNA or the same excess of different RNA are added to the binding reactions.

[4] = tested on: human CD45 5' UTR / RNA binding proteins (K562 cell line protein); assay: Gel shift specificity (competition), labeled CD45 5' UTR and K562 protein; conditions: 100 and 1,000 fold molar excess of unlabeled RNA
Excerpt: as §3, §4

Molecule: CC(=NN=C(N)N)c1cc(NC(=O)CCCCCCCCC(=O)Nc2cc(C(C)=NN=C(N)N)cc(C(C)=NN=C(N)N)c2)cc(C(C)=NN=C(N)N)c1 [Compound G10, CNI-1493]
- post-transcriptional inhibition of TNF-α production (TNF-α production): post-transcriptionally inhibit TNF-α production
- change in counts across the experiments ([1]; 4 experiments): substantial increase in counts in 3 of the 4 experiments
- labeled AUUUA RNA retained on filter, percent of RNA&K562 reference, Experiment #29 ([1]; RNA&K562 = 100): 114.53%
- labeled AUUUA RNA retained on filter, percent of RNA&K562 reference, Experiment #30 ([1]; RNA&K562 = 100): 66.94%
- labeled AUUUA RNA retained on filter, percent of RNA&K562 reference, Experiment #31 ([1]; RNA&K562 = 100): 127.28%
- labeled AUUUA RNA retained on filter, percent of RNA&K562 reference, Experiment #33 ([1]; RNA&K562 = 100): 135.24%
- Avg. % (labeled AUUUA RNA retained on filter) ([1]; mean of Experiments #33, #31, #30, #29): 111.00%

Molecule: CC(=O)N(O)CCCCCNC(=O)CCC(=O)N(O)CCCCCNC(=O)CCC(=O)N(O)CCCCCN [Desferroxiamine, desferroxiamine]
- modulation of IRE/protein binding by small molecules [2]: did not change the amount IRE/protein complex formed

Molecule: [Cl][Fe]([Cl])[Cl] [FeCl3]
- modulation of IRE/protein binding by small molecules [2]: concentration-dependent inhibition of binding

Molecule: hemin
- modulation of IRE/protein binding by small molecules [2]: concentration-dependent inhibition of binding

B1: C4b-binding protein: 5' UTR RNA of human C4b-binding protein alpha chain, SEQ ID NO:3 (nucleic acid)
chain: GCUGCUUUAUUUCUGCUGUUAAUCAUUCAUUGGGCCCGUCAAAAGUUUCUGCCCAUCUAUUUCCAUCAACCGUCCUUGACCAGCCAACCACAUGGCUGAAAUUCAGG
modifications: expressed or natural sequence
- competition of complex formation by unlabeled RNA [3]: concentration dependent inhibition of complex formation

B2: CD45: 5' UTR RNA of human CD45, SEQ ID NO:4 (nucleic acid)
chain: CUGACAUCAUCACCUAGCAGUUCAUGCAGCUAGCAAGUGGUUUGUUCUUAGGGUAACAGAGGAGGAAAUUGUUCCUCGUCUGAUAAGACAACAGUGGAGAAAGGACGCAUGCAGUUUCUUAGGGACACGGCUGACUUCCAGAUAUGACCAUGUAUUUGUGGCUUAAACUCUUGG
- competition of complex formation by unlabeled RNA [4]: concentration dependent inhibition of complex formation

From patent US5859227A, “RNA sequences which interact with RNA-binding proteins” (Bearsden Bio, Inc., priority 1997, dated 1999)
